In patent US12616678B2, “Methods to of aldehyde dehydrogenases for treatment of cancer” (THE PENN STATE RESEARCH FOUNDATION, priority 2020, dated 2026):
Structures can show the parent of a compound that is named as a salt. Where two headings read alike, the source gives them in different places.

What was measured:
ALDH1A1 = target: T1, ALDH1A1 (Homo sapiens, UniProt P00352); test: ALDH isoform-specific enzyme assay, ALDH1A1 (NADH absorbance); format: biochemical; settings: read-out: IC50s ALDH1A1
T1 construct: purchased R & D Systems, Inc, Minneapolis, MN, USA
T1 sequence (P00352 1-501): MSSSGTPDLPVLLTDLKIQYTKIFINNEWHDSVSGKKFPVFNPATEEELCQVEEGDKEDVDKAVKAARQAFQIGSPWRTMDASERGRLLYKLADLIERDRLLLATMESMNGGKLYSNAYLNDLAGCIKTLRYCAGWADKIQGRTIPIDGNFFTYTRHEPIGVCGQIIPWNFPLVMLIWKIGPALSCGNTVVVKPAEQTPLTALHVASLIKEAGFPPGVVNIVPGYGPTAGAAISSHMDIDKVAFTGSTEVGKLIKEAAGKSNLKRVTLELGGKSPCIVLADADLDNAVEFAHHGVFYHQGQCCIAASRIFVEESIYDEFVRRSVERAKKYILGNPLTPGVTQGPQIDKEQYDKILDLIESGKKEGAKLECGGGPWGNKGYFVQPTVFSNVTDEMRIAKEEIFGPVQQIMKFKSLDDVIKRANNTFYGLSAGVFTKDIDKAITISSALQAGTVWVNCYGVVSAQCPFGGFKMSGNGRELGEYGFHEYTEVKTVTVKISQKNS
Description: (§2) ALDH enzyme assays were performed using a kit as described by the kit manufacturer (R & D Systems, Inc, Minneapolis, MN, USA). Isoform-specific aldehydes were converted to their respective carboxylic acids along with conversion of NAD+ to NADH (absorbance at 340 nm). […] Similarly, 0.5 μg/mL of ALDH2 was used in the reaction with 2 mM of acetaldehyde as the substrate and 0.2 μg/mL of ALDH3A1 was used in the reaction with 1 mM of 4-nitrobenzaldehyde (4-NBA) as the substrate following addition of ALDH inhibitors.
(§3) ALDH1A1, 2 and 3A1 enzyme assays were performed as described by the manufacturer (R & D systems). Isoform-specific aldehydes were converted to their respective carboxylic acids along with the conversion of NAD+ to NADH (absorbance at 340 nm).

ALDH2 = target: T2, ALDH2 (Homo sapiens, UniProt P05091); test: ALDH isoform-specific enzyme assay, ALDH2 (NADH absorbance); format: biochemical; settings: read-out: IC50s ALDH2
T2 construct: purchased R & D Systems, Inc, Minneapolis, MN, USA
T2 sequence (P05091 18-517): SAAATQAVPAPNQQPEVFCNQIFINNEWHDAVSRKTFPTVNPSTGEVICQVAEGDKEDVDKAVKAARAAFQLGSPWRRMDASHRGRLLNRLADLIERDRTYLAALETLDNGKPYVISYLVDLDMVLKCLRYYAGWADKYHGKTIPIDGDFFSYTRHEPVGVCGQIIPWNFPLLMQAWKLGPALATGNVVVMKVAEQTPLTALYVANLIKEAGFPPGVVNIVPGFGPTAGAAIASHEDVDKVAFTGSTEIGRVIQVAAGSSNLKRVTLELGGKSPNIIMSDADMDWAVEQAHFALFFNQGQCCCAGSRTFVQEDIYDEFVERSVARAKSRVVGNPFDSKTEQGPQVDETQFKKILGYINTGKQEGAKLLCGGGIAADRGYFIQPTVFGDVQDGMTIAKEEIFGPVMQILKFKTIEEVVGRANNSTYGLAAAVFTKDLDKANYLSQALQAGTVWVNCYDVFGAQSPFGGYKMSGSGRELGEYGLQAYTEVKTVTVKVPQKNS
Description: as §2, §3

[1] = test system: UACC 903 and 1205 Lu cells; test: ROS assay (DCFDA), melanoma cells; format: cell-based, human; settings: 5 μM, 24 hours, vs DMSO
[2] = test system: UACC 903 and 1205 Lu cells; test: Lipid peroxidation (TBARS), melanoma cells; format: cell-based, human; settings: 5 μM, 24 hours, vs DMSO
Description: DMSO served as the vehicle control.

[3] = test system: total cellular ALDH activity, UACC 903 cell lysates; test: Total cellular ALDH activity in cell lysates, UACC 903; format: cell-based, human; settings: 1 uM, 15 minutes, UACC 903 and 1205 Lu cell lysates
Description: The ALDHs reduce ROS, lipid peroxidation and toxic aldehyde accumulation, the latter of which can lead to cell damage and apoptosis as shown in FIG. 6A. Thus, inhibition of total cellular ALDH activity can increase toxic aldehydes, oxidative damage and apoptosis.

Swiss-Webster mice = test: Toxicity study, 14 days; format: in vivo, mouse; settings: 5 mg/kg/day i.p. for 14 days, vs DMSO
Description: To determine the toxicity of 3(h-l), compounds were injected i.p. into Swiss-Webster mice once daily for 14 days (Id.). Animals were monitored for changes in body weight, behavior and physical distress compared to DMSO control.

[4] = test system: colon cancer cell line HCT116; test: Cell cycle by propidium iodide staining, HCT116; format: cell-based; settings: reversed by addition of NAC
[5] = test system: multiple myeloma cell lines (NCIH929, U266, RPMI8226, MM.1R); test: MTS cell viability assay, multiple myeloma cells; format: cell-based; settings: 72 hours, read-out: Average IC50s across all multiple myeloma cell lines tested
Description: (§1) Tumour Biol 2017; 39(3):1010428317694565; Rao P C, et al., Cytotoxicity of withasteroids: withametelin induces cell cycle arrest at G2/M phase and mitochondria-mediated apoptosis in non-small cell lung cancer A549 cells. Tumour Biol 2016; 37(9):12579-87; Dinavahi S S, et al., Combined inhibition of PDE4 and PI3Kdelta modulates the inflammatory component involved in the progression of chronic obstructive pulmonary disease. Drug Res (Stuttg) 2014; 64(4):214-9). Briefly, 3,000 cells per well were plated in a 96-well plate and incubated overnight at 37° C. in a 5% CO2 atmosphere. […] 20 μL of MTS reagent was then added into each well and formation of […] was measured by absorbance after 1 hour at 492 nm. IC50 values for each experimental group were measured in 3 independent experiments using GraphPad Prism version 7.04 (GraphPad Software, La Jolla, CA).

[6] = test system: HCT116 colon cancer cells; test: Apoptosis by Annexin-V/7-AAD, HCT116; format: cell-based; parameters: dose or concentration left out as unconfirmed; settings: vs DMSO control or 3a
[7] = test system: colon cell lines (HCT116, HT29); test: ROS assay (DCFDA) with or without NAC, Study 2; format: cell-based
Description: ROS activity was measured using DCFDA dye. […] Cells were incubated with 10 μM of DCFDA for 1 hour, and fluorescence was measured at 485 nm excitation and 510 nm emission. ROS levels in treated cells were compared to DMSO control.

[8] = test system: colon cancer cell line, HCT116; test: Cell survival MTS assay with addition of NAC; format: cell-based
Description: (§4) Briefly, 3,000 cells per well were plated in a 96-well plate and incubated overnight at 37° C. in a 5% CO2 atmosphere. […] 20 μL of MTS reagent was then added into each well and formation of tetrazolium was measured by absorbance after 1 hour at 492 nm. IC50 values for each experimental group were measured in 3 independent experiments using GraphPad Prism version 7.04 (GraphPad Software, La Jolla, CA).

[9] = test system: Colon cancer cells (HCT116 and HT29); test: MTS cell viability assay, colon cancer cells; format: cell-based; settings: HCT116 and HT29, 72 hours; read-out: Average IC50s across both colon cancer cell lines
Description: as §1

[10] = test system: HCT116 colon cancer cell line; test: Lipid peroxidation and toxic aldehyde accumulation (TBARS), Study 2
ALDH3A1 = target: T3, ALDH3A1 (Homo sapiens, UniProt P30838); test: ALDH isoform-specific enzyme assay, ALDH3A1 (NADH absorbance); format: biochemical
T3 construct: purchased R & D Systems, Inc, Minneapolis, MN, USA
T3 sequence (P30838 1-453): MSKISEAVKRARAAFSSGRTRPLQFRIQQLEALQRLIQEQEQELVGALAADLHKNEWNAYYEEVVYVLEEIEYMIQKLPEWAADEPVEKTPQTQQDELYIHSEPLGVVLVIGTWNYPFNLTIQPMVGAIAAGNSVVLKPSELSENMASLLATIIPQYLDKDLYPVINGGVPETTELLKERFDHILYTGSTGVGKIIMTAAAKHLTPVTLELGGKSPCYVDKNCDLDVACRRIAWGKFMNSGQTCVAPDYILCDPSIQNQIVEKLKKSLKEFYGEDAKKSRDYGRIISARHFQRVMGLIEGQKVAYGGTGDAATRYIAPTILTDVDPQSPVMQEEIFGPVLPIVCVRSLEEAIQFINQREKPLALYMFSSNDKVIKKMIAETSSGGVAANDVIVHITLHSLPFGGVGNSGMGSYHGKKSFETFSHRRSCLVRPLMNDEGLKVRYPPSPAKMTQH
Description: as §2, §3

[11] = test system: melanoma cells (UACC 903 and 1205 Lu) and normal human fibroblasts (FF2441); test: MTS cell viability assay, all the cell lines evaluated; format: cell-based; settings: read-out: IC50s in all the cell lines evaluated
Description: as §1

UACC 903 cells = test: MTS cell viability assay, UACC 903; format: cell-based, human; settings: 100 μM, 72 hours
Description: Cell viability assays of UACC 903 cells transfected with siRNA, and melanoma cell lines (UACC 903, 1205 Lu, C8161.CI9, MelJuSo), FF2441 and NHEM cells treated with ALDH inhibitors were performed. For this, 5,000 cells per well were plated in a 96-well plate and incubated overnight at 37° C. in a 5% CO2 atmosphere. For the siRNA knockdown experiment, cells were incubated for another 72 hours. For the ALDH inhibitor experiments, cells were treated with agents at various concentrations and incubated for 72 hours. 20 μL of MTS reagent was then added into each well and formation of tetrazolium was measured by absorbance after 1 hour at 492 nm. IC50 values or % cells for each experimental group were measured in three independent experiments using GraphPad Prism version 7.04 (GraphPad Software, La Jolla, CA).
as §4

SMILES: Cc1nc2ccccc2n1S(=O)(=O)c1ccc(F)cc1 [CB7]
- IC50 (ALDH1A1): 139 µM
- IC50 (ALDH2): 144 µM

SMILES: CCOC(=O)CSc1nc2c(sc3ccccc32)c(=O)n1CCCN1CCCC1 [CM037]
- ROS levels [1]: significantly increased ROS levels
- lipid peroxidation and toxic aldehyde accumulation [2]: significantly increased lipid peroxidation and toxic aldehyde accumulation
- effect on total cellular ALDH activity [3]: significantly reduced

SMILES: Br.N=C(N)SCc1ccc(CN2C(=O)C(=O)c3cc(C(F)(F)F)ccc32)cc1 [Compound 3h, 2-[4-(2,3-Dioxo-5-trifluoromethyl-2,3-dihydroindol-1-ylmethyl)benzyl]isothiourea hydrobromide]
- weight loss (Swiss-Webster mice): no significant weight loss
- cell cycle effect [4]: G2/M arrest
- IC50 [5]: 1.9 µM
- percentage of cells both Annexin-V and 7-AAD positive [6]: significantly higher
- ROS levels ([7]; 5 μM, 24 hours, vs DMSO): significantly increased ROS levels
- ROS-inducing activity on addition of N-Acetyl Cysteine (NAC) ([7]; with NAC): abrogated
- increase of cell killing IC50 on addition of NAC [8]: 6 fold
- IC50 [9]: 5.3 µM
- lipid peroxidation and toxic aldehyde accumulation ([10]; 5 μM, 24 hours, vs DMSO): significantly increased
- lipid peroxidation effect on addition of NAC ([10]; with NAC): abrogated

SMILES: N=C(N)SCc1ccc(CN2C(=O)C(=O)c3cc(Cl)cc(Cl)c32)cc1 [Compound 3k, 2-[4-(5,7-Dichloro-2,3-dioxo-2,3-dihydroindol-1-ylmethyl)benzyl]isothiourea hydrobromide]
- IC50 [5]: 1.6 µM
- IC50 [9]: 2.9 µM

SMILES: N=C(N)[Se]Cc1ccc(CN2C(=O)C(=O)c3cc(Br)ccc32)cc1 [Compound 4b, 2-[4-(5-Bromo-2,3-dioxo-2,3-dihydroindol-1-ylmethyl)benzyl]isoselenourea hydrobromide]
- inhibition at 0.5 µM (ALDH3A1; read-out: % inhibition of ALDH3A1): ≥ 60%

SMILES: O=C1C(=O)N(Cc2ccccc2)c2ccccc21 [Cpd 3]
- IC50 [11]: > 100 µM

SMILES: CCN(CC)c1ccc(C=O)cc1 [DEAB]
- ROS levels [1]: significantly increased ROS levels
- lipid peroxidation and toxic aldehyde accumulation [2]: significantly increased lipid peroxidation and toxic aldehyde accumulation
- IC50 (ALDH3A1; as rounded in text, read-out: IC50 ALDH3A1): 15.1 µM
- IC50 (ALDH3A1; read-out: IC50s ALDH3A1): 15.1 µM
- reduction of UACC 903 cell survival (UACC 903 cells): 30%
- effect on total cellular ALDH activity [3]: significantly reduced

SMILES: O=C1Nc2ccccc2C1=O [Isatin]
- effect on total cellular ALDH activity [3]: ineffective
